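Method: 48-hour compound exposure of cells in 96-well plates, five concentrations, linear interpolation of endpoints. TGI denotes the concentration required for complete inhibition of growth.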
Tests used:
Assay in all cases: NCI-60 cell line screen, 48 h
CAKI-1 renal = system: CAKI-1 renal
HCC-2998 colon = system: HCC-2998 colon
HCT-116 colon = system: HCT-116 colon
HOP-62 NSCLC = system: HOP-62 NSCLC
HOP-92 NSCLC = system: HOP-92 NSCLC
HT29 colon = system: HT29 colon
KM12 colon = system: KM12 colon
MALME-3M melanoma = system: MALME-3M melanoma
MDA-MB-231 breast = system: MDA-MB-231 breast
MDA-N = system: MDA-N
NCI-H23 lung = system: NCI-H23 lung
NCI-H522 lung = system: NCI-H522 lung
NCI/ADR-RES ovarian = system: NCI/ADR-RES ovarian
RPMI-8226 leukemia = system: RPMI-8226 leukemia
SK-MEL-2 melanoma = system: SK-MEL-2 melanoma
SK-OV-3 ovarian = system: SK-OV-3 ovarian
SNB-19 CNS = system: SNB-19 CNS
U251 CNS = system: U251 CNS
TK-10 renal = system: TK-10 renal

Structure (SMILES) | TGI (CAKI-1 renal) [µM] | TGI (HCC-2998 colon) [µM] | TGI (HCT-116 colon) [µM] | TGI (HOP-62 NSCLC) [µM] | TGI (HOP-92 NSCLC) [µM] | TGI (HT29 colon) [µM] | TGI (KM12 colon) [µM] | TGI (MALME-3M melanoma) [µM] | TGI (MDA-MB-231 breast) [µM] | TGI (MDA-N) [µM] | TGI (NCI-H23 lung) [µM] | TGI (NCI-H522 lung) [µM] | TGI (NCI/ADR-RES ovarian) [µM] | TGI (RPMI-8226 leukemia) [µM] | TGI (SK-MEL-2 melanoma) [µM] | TGI (SK-OV-3 ovarian) [µM] | TGI (SNB-19 CNS) [µM] | TGI (U251 CNS) [µM] | TGI (TK-10 renal) [µM]
Cc1cccc2c1C(=O)[C@](C)([C@]1(C)Nc3cccc(C)c3C1=O)N2 | 69.2 | > 100 | > 100 | 84.9 | 75.7 | > 100 | > 100 | > 100 | > 100 | 63 | 77.4 | 80.9 | > 100 | 53.7 | 69.2 | 76.6 | > 100 | > 100 | –
CCOC(=O)CCC(NC(=O)c1ccc(Oc2nc3ccccc3nc2-c2ccccc2)cc1)C(=O)OCC (centres undefined) | > 66.4 | > 100 | > 49.3 | 45.1 | 13.4 | 10.7 | > 100 | 33 | 65.9 | > 85.4 | > 61.3 | 40.2 | 27.7 | > 100 | > 93 | > 67.6 | > 77 | > 94 | > 56.8
O=C(CC(C(=O)c1cccs1)c1cccs1)c1ccsc1 (centres undefined) | > 100 | > 100 | > 100 | > 100 | – | > 100 | > 100 | > 100 | > 100 | 46.4 | > 100 | – | > 100 | > 100 | > 100 | > 100 | > 100 | > 100 | > 100
CO[C@@H]1C[C@H]2[C@@H]3CC[C@H]([C@@H](C)CO)[C@@]3(C)CC[C@@H]2[C@@]2(C)CC[C@H]3C[C@]312 | > 100 | > 100 | > 100 | > 100 | 58.5 | 36.2 | 36.6 | 41.2 | 80.7 | > 100 | > 100 | 71.8 | 93 | 89.6 | – | – | > 100 | 27.7 | > 100
CC1C/C(=C\c2ccc(OC(=O)C(C)(C)C)cc2)C(=O)/C(=C/c2ccc(OC(=O)C(C)(C)C)cc2)C1 (centres undefined) | > 100 | > 100 | > 100 | > 100 | > 100 | > 100 | > 100 | > 100 | > 100 | > 100 | > 100 | 15.6 | > 100 | – | > 100 | > 100 | > 100 | > 100 | > 100
Nc1ccc2c(=O)cc(-c3cccs3)[nH]c2n1 | > 100 | 27.5 | > 50.8 | > 100 | > 100 | > 72 | > 100 | > 100 | > 100 | 1.73 | > 26.3 | – | 5.5 | – | > 100 | > 100 | > 100 | > 45.6 | > 100
CCN(CC)c1ccc2cc(C(N)=S)c(=N)oc2c1 | > 100 | > 100 | > 100 | > 100 | > 100 | > 100 | > 100 | > 100 | > 100 | > 100 | – | > 100 | > 100 | > 100 | > 100 | > 100 | > 100 | > 100 | > 100
CN(C)CCCNc1ccc2c(=O)n(CCN(C)C)c(=O)n3c4ccccc4c(=O)c1c23 | 0.944 | 0.267 | – | 5.91 | 7.79 | 0.907 | 1.4 | 3.99 | 0.496 | 0.312 | 1.19 | 0.385 | 4.02 | 0.595 | 2.52 | 4.9 | 3.02 | 2.15 | 2.28
CCO/C=N\c1c(C#N)c(-c2ccc(Cl)cc2)cn1-c1ccc(C)cc1 | > 100 | > 100 | > 100 | > 100 | > 100 | > 100 | – | > 100 | > 100 | > 100 | > 100 | > 100 | > 100 | – | > 100 | > 100 | > 100 | > 100 | > 100
Cc1ccc(N2C(=O)C=C(C3=C(O)C(=O)N(c4ccc(C)cc4)C3=O)C2=O)cc1 | – | > 100 | > 100 | > 100 | > 100 | > 100 | – | > 100 | > 100 | > 100 | > 100 | – | > 100 | > 100 | – | > 100 | > 100 | > 100 | > 100
O=c1c2cc(-c3ccccc3)sc2nc2n1N=C(c1ccc(Cl)cc1)CS2 | > 100 | > 100 | > 100 | > 100 | > 100 | > 100 | > 100 | > 100 | > 100 | > 100 | > 100 | > 100 | > 100 | > 100 | – | > 100 | – | > 100 | > 100
COc1ccc(/C=C2\CN(C)C/C(=C\c3ccc(OC)cc3)C2=O)cc1 | > 100 | > 100 | > 100 | > 100 | > 100 | > 100 | > 100 | > 100 | > 100 | > 100 | > 100 | > 100 | > 100 | > 100 | > 100 | – | > 100 | > 100 | > 100
Clc1nssc1=Nc1nonc1-c1ccccc1 | 34.6 | > 100 | > 100 | > 100 | > 100 | 52.2 | 96 | 99.2 | 34.5 | 41.2 | 76.6 | 43.4 | 98.3 | 63.3 | > 100 | > 100 | > 100 | > 100 | –
Nc1nc(Cl)c(/C=N\O)c(NCC2(CO)CCC2)n1 | > 100 | > 100 | > 100 | > 100 | > 100 | > 100 | 18.3 | > 100 | > 100 | > 100 | > 100 | > 100 | > 100 | > 100 | – | – | > 100 | > 100 | > 100
O=S(=O)(c1ccccc1)C(c1ccc2ccccc2n1)S(=O)(=O)c1ccccc1 | > 100 | > 100 | > 100 | > 100 | > 100 | > 100 | > 100 | > 100 | > 100 | > 100 | > 100 | > 100 | > 100 | > 100 | – | – | > 100 | > 100 | > 100
O=C1c2ccccc2C(=O)N1CC1S(=O)(=O)OCCOS1(=O)=O | > 100 | > 100 | > 100 | > 100 | > 100 | > 100 | – | > 100 | > 100 | > 100 | > 100 | > 100 | > 100 | > 100 | – | > 100 | > 100 | > 100 | > 100
CC1(C)CC2=C(Sc3ccccc3N2)C(=O)C1C(=O)C(=O)Nc1cccc([N+](=O)[O-])c1 (centres undefined) | > 100 | > 100 | > 100 | – | > 100 | > 100 | > 100 | > 100 | > 100 | > 100 | > 100 | > 100 | > 100 | > 100 | > 100 | > 100 | > 100 | > 100 | > 100
CSC1=Nc2ccccc2-c2nc3ccccc3cc2C1 | > 100 | > 100 | > 100 | > 100 | > 100 | > 100 | > 100 | > 100 | > 100 | > 100 | > 100 | > 100 | > 100 | – | > 100 | > 100 | > 100 | > 100 | > 100
N#CC1C(=O)SC2c3ccccc3C(=O)c3ccccc3C12 (centres undefined) | > 10 | > 10 | > 10 | > 10 | – | > 10 | > 10 | > 10 | > 10 | > 10 | > 10 | – | > 10 | > 10 | > 10 | > 10 | > 10 | > 10 | > 10
CN(C)CC1CN=C(N)O1 (centres undefined) | > 100 | > 100 | > 100 | > 100 | > 100 | – | > 100 | > 100 | > 100 | > 100 | > 100 | > 100 | > 100 | > 100 | > 100 | > 100 | > 100 | > 100 | > 100
C=CC1CCC[N+]1(CC(=O)OCC)Cc1ccccc1 (centres undefined) | – | > 100 | > 100 | > 100 | > 100 | > 100 | – | > 100 | > 100 | > 100 | > 100 | – | > 100 | > 100 | – | > 100 | > 100 | > 100 | > 100

— PubChem BioAssay (NCI)
